# Results taken from PubChem BioAssay (NCI).
#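 Test compounds were applied to cells in 96-well plates for 48 hours at 5 doses. The concentration for 50% growth inhibition is given as GI50. The concentration for full growth arrest is given as TGI.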
# Assays:
# Assay in all cases: NCI tumour cell line growth inhibition, 48 h
# [1] = tested on: 786-0 renal
# [2] = tested on: A498 renal
# [3] = tested on: A549 NSCLC
# [4] = tested on: ACHN renal
# [5] = tested on: BT-549 breast
# [6] = tested on: CAKI-1 renal
# [7] = tested on: CCRF-CEM leukemia
# [8] = tested on: COLO 205 colon
# [9] = tested on: DU-145 prostate
# [10] = tested on: EKVX NSCLC
# [11] = tested on: HCC-2998 colon
# [12] = tested on: HCT-116 colon
# [13] = tested on: HCT-15 colon
# [14] = tested on: HOP-62 NSCLC
# [15] = tested on: HT29 colon
# [16] = tested on: IGROV1 ovarian
# [17] = tested on: K-562 leukemia
# [18] = tested on: KM12 colon
# [19] = tested on: LOX IMVI melanoma
# [20] = tested on: M14 melanoma
# [21] = tested on: MALME-3M melanoma
# [22] = tested on: MCF7 breast
# [23] = tested on: MDA-MB-231 breast
# [24] = tested on: MDA-MB-435
# [25] = tested on: MDA-N
# [26] = tested on: MOLT-4 leukemia
# [27] = tested on: NCI-H226 lung
# [28] = tested on: NCI-H23 lung
# [29] = tested on: NCI-H460 lung
# [30] = tested on: NCI-H522 lung
# [31] = tested on: NCI/ADR-RES ovarian
# [32] = tested on: OVCAR-4 ovarian
# [33] = tested on: OVCAR-5 ovarian
# [34] = tested on: OVCAR-8 ovarian
# [35] = tested on: PC-3 prostate
# [36] = tested on: RPMI-8226 leukemia
# [37] = tested on: RXF 393 renal
# [38] = tested on: SF-268 CNS
# [39] = tested on: SF-295 CNS
# [40] = tested on: SF-539 CNS
# [41] = tested on: SK-MEL-2 melanoma
# [42] = tested on: SK-MEL-28 melanoma
# [43] = tested on: SK-MEL-5 melanoma
# [44] = tested on: SK-OV-3 ovarian
# [45] = tested on: SN12C renal
# [46] = tested on: SNB-19 CNS
# [47] = tested on: SNB-75 CNS
# [48] = tested on: SR leukemia
# [49] = tested on: SW-620 colon
# [50] = tested on: T-47D breast
# [51] = tested on: TK-10 renal
# [52] = tested on: U251 CNS
# [53] = tested on: UACC-257 melanoma
# [54] = tested on: UACC-62 melanoma
# [55] = tested on: UO-31 renal
# [56] = tested on: HL-60(TB) leukemia
# [57] = tested on: HOP-92 NSCLC
# [58] = tested on: OVCAR-3 ovarian
# [59] = tested on: HS 578T breast
compound,measurement,setting,value
CC(=O)O[C@@H]1C2=C(C)C=C(O2)[C@H]2O[C@]2(C)C[C@H]2C=C(C(=O)O2)[C@H](OC(C)=O)CC1[C@@]1(C)CO1 (stereo partly drawn),TGI,[1],77.1 µM
same,TGI,[2],> 100 µM
same,TGI,[3],> 100 µM
same,TGI,[4],61.6 µM
same,TGI,[5],48.5 µM
same,TGI,[6],62.8 µM
same,TGI,[7],29.6 µM
same,TGI,[8],27.1 µM
same,TGI,[9],> 100000 nM
same,TGI,[10],85 µM
same,TGI,[11],> 100 µM
same,TGI,[12],28.4 µM
same,TGI,[13],63.6 µM
same,TGI,[14],57.9 µM
same,TGI,[15],> 100 µM
same,TGI,[16],30.8 µM
same,TGI,[17],36.5 µM
same,TGI,[18],> 100 µM
same,TGI,[19],37.6 µM
same,TGI,[20],64.2 µM
same,TGI,[21],58.4 µM
same,TGI,[22],44.8 µM
same,TGI,[23],78.8 µM
same,TGI,[24],71.8 µM
same,TGI,[25],> 100 µM
same,TGI,[26],25.2 µM
same,TGI,[27],> 100 µM
same,TGI,[28],> 100 µM
same,TGI,[29],> 100 µM
same,TGI,[30],12.5 µM
same,TGI,[31],> 100 µM
same,TGI,[32],> 100 µM
same,TGI,[33],76.8 µM
same,TGI,[34],> 100 µM
same,TGI,[35],> 100 µM
same,TGI,[36],33.9 µM
same,TGI,[37],36.8 µM
same,TGI,[38],> 100000 nM
same,TGI,[39],> 100 µM
same,TGI,[40],83.4 µM
same,TGI,[41],> 100 µM
same,TGI,[42],36 µM
same,TGI,[43],> 100 µM
same,TGI,[44],> 100 µM
same,TGI,[45],69.8 µM
same,TGI,[46],> 100 µM
same,TGI,[47],> 100 µM
same,TGI,[48],47.5 µM
same,TGI,[49],26.1 µM
same,TGI,[50],39.7 µM
same,TGI,[51],> 100 µM
same,TGI,[52],40.1 µM
same,TGI,[53],> 100 µM
same,TGI,[54],56.3 µM
same,TGI,[55],51.4 µM
N=c1c2c(-c3ccccc3)c[nH]c2ncn1N,TGI,[1],> 100 µM
same,TGI,[2],> 100 µM
same,TGI,[3],> 100 µM
same,TGI,[4],> 100 µM
same,TGI,[5],> 100 µM
same,TGI,[6],> 100 µM
same,TGI,[7],> 100 µM
same,TGI,[8],> 100 µM
same,TGI,[10],> 100 µM
same,TGI,[11],> 100 µM
same,TGI,[12],> 100 µM
same,TGI,[13],> 100 µM
same,TGI,[56],> 100000 nM
same,TGI,[14],> 100 µM
same,TGI,[57],> 100000 nM
same,TGI,[15],> 100 µM
same,TGI,[16],> 100 µM
same,TGI,[17],> 100 µM
same,TGI,[18],> 100 µM
same,TGI,[19],> 100 µM
same,TGI,[20],> 100 µM
same,TGI,[22],> 100 µM
same,TGI,[23],> 100 µM
same,TGI,[24],> 100 µM
same,TGI,[25],> 100 µM
same,TGI,[26],> 100 µM
same,TGI,[27],> 100 µM
same,TGI,[28],> 100 µM
same,TGI,[30],> 100 µM
same,TGI,[31],> 100 µM
same,TGI,[58],> 100000 nM
same,TGI,[32],> 100 µM
same,TGI,[33],> 100 µM
same,TGI,[34],> 100 µM
same,TGI,[35],> 100 µM
same,TGI,[36],> 100 µM
same,TGI,[39],> 100 µM
same,TGI,[40],> 100 µM
same,TGI,[41],> 100 µM
same,TGI,[42],> 100 µM
same,TGI,[43],> 100 µM
same,TGI,[44],> 100 µM
same,TGI,[45],> 100 µM
same,TGI,[46],> 100 µM
same,TGI,[47],> 100 µM
same,TGI,[49],> 100 µM
same,TGI,[50],> 100 µM
same,TGI,[51],> 100 µM
same,TGI,[52],> 100 µM
same,TGI,[53],> 100 µM
same,TGI,[54],> 100 µM
same,TGI,[55],> 100 µM
CC1(C)[C@@H](O[C@@H]2OC[C@@H](O[C@@H]3O[C@H](CO)[C@@H](O)[C@H](O)[C@H]3O[C@@H]3OC[C@@H](O)[C@H](O)[C@H]3O)[C@H](O)[C@H]2O[C@@H]2O[C@H](CO)[C@@H](O)[C@H](O)[C@H]2O)CC[C@]2(C)[C@H]3CC[C@]45OC[C@@]6(CC[C@](C)(C=O)C[C@H]64)[C@H](O)C[C@@]5(C)[C@]3(C)CC[C@@H]12,GI50,[1],2840 nM
same,TGI,[1],5.77 µM
same,GI50,[2],825 nM
same,TGI,[2],1.53 µM
same,GI50,[3],943 nM
same,TGI,[3],1.95 µM
same,GI50,[4],824 nM
same,TGI,[4],1.54 µM
same,GI50,[5],1140 nM
same,TGI,[5],3.37 µM
same,GI50,[6],763 nM
same,TGI,[6],1.45 µM
same,GI50,[7],1020 nM
same,TGI,[7],3.13 µM
same,GI50,[8],1020 nM
same,TGI,[8],2.01 µM
same,GI50,[9],1090 nM
same,TGI,[9],2330 nM
same,GI50,[10],945 nM
same,TGI,[10],1.96 µM
same,GI50,[11],931 nM
same,TGI,[11],1.75 µM
same,GI50,[12],898 nM
same,TGI,[12],1.91 µM
same,GI50,[13],1620 nM
same,TGI,[13],4.37 µM
same,GI50,[56],1040 nM
same,TGI,[56],2210 nM
same,GI50,[14],898 nM
same,TGI,[14],1.79 µM
same,GI50,[57],704 nM
same,TGI,[57],1540 nM
same,GI50,[59],995 nM
same,TGI,[59],2400 nM
same,GI50,[15],1010 nM
same,TGI,[15],2.06 µM
same,GI50,[16],872 nM
same,TGI,[16],1.84 µM
same,GI50,[17],1810 nM
same,TGI,[17],5.51 µM
same,GI50,[18],1210 nM
same,TGI,[18],3.17 µM
same,GI50,[19],924 nM
same,TGI,[19],1.95 µM
same,GI50,[20],925 nM
same,TGI,[20],1.81 µM
same,GI50,[21],879 nM
same,TGI,[21],1.74 µM
same,GI50,[22],972 nM
same,TGI,[22],2.43 µM
same,GI50,[23],915 nM
same,TGI,[23],1.9 µM
same,GI50,[24],851 nM
same,TGI,[24],1.6 µM
same,GI50,[26],962 nM
same,TGI,[26],2.31 µM
same,GI50,[27],985 nM
same,TGI,[27],2.11 µM
same,GI50,[28],984 nM
same,TGI,[28],2.12 µM
same,GI50,[29],1170 nM
same,TGI,[29],3.26 µM
same,GI50,[30],903 nM
same,TGI,[30],1.83 µM
same,GI50,[31],1240 nM
same,TGI,[31],3.43 µM
same,GI50,[58],1010 nM
same,TGI,[58],2060 nM
same,GI50,[32],794 nM
same,TGI,[32],1.66 µM
same,GI50,[33],834 nM
same,TGI,[33],1.66 µM
same,GI50,[34],1070 nM
same,TGI,[34],2.57 µM
same,GI50,[35],884 nM
same,TGI,[35],1.78 µM
same,GI50,[36],1120 nM
same,TGI,[36],2.56 µM
same,GI50,[37],892 nM
same,TGI,[37],2.07 µM
same,GI50,[38],963 nM
same,TGI,[38],1990 nM
same,GI50,[39],892 nM
same,TGI,[39],1.64 µM
same,GI50,[40],1210 nM
same,TGI,[40],3.35 µM
same,GI50,[41],886 nM
same,TGI,[41],1.74 µM
same,GI50,[42],903 nM
same,TGI,[42],1.77 µM
same,GI50,[43],2800 nM
same,TGI,[43],5.36 µM
same,GI50,[44],922 nM
same,TGI,[44],1.67 µM
same,GI50,[45],847 nM
same,TGI,[45],1.79 µM
same,GI50,[46],872 nM
same,TGI,[46],1.77 µM
same,GI50,[47],746 nM
same,TGI,[47],1.53 µM
same,GI50,[48],185 nM
same,TGI,[48],1.92 µM
same,GI50,[49],969 nM
same,TGI,[49],2.04 µM
same,GI50,[50],1520 nM
same,TGI,[50],5 µM
same,GI50,[51],945 nM
same,TGI,[51],1.83 µM
same,GI50,[52],990 nM
same,TGI,[52],2.01 µM
same,GI50,[53],920 nM
same,TGI,[53],1.83 µM
same,GI50,[54],909 nM
same,TGI,[54],1.81 µM
same,GI50,[55],649 nM
same,TGI,[55],1.32 µM
